Laboratory results as given in ChEMBL document CHEMBL4619778, “Oligopeptides as Neuropeptide Y Y4 Receptor Ligands: Identification of a High-Affinity Tetrapeptide Agonist and a Hexapeptide Antagonist” (J Med Chem, 2020).
Bridge positions count the residues as written; N and C are the ends. Square brackets hold non-standard residues; d marks the D form. Peptide text beside a SMILES is read from it. I, II: the chains in the order shown. ξ: configuration not given here. ξDap = NCC(N)C(=O)O

How the values were obtained:
[1] = molecular target: T1, Neuropeptide Y receptor type 4 (Homo sapiens, UniProt P50391); experiment: Agonist activity at human Y4R expressed in HEK293T cells co-expressing ARRB2 assessed as induction of beta-arrestin2 recruitment measured for 40 mins by D-luciferin based luminescence assay; type: cell-based, HEK-293T
[2] = organism: Homo sapiens; experiment: Selectivity ratio of Ki for displacement of [3H]UR-MK299 from Y1 receptor in human SK-N-MC cells to Ki for displacement of [3H]UR-KK200 from human Y4 receptor expressed in CHO cells co-expressing Gqi5-mtAEQ; type: cell-based
[3] = molecular target: T1, Neuropeptide Y receptor type 4; experiment: Displacement of [3H]UR-KK200 from human Y4 receptor expressed in CHO cells co-expressing Gqi5-mtAEQ measured after 90 mins by scintillation counting analysis; type: cell-based
[4] = molecular target: T1, Neuropeptide Y receptor type 4; experiment: Agonist activity at human Y4R expressed in HEK293T cells co-expressing ARRB1 assessed as induction of beta-arrestin1 recruitment measured for 40 mins by D-luciferin based luminescence assay; type: cell-based, HEK-293T
[5] = molecular target: T1, Neuropeptide Y receptor type 4; experiment: Agonist activity at human Y4 receptor expressed in CHO cells co-expressing Gqi5-mtAEQ assessed as intracellular calcium mobilization measured for 43 secs in presence of coelenterazine by aequorin-reporter gene based luminescence assay; type: functional, cell-based
[6] = molecular target: T2, Neuropeptide Y receptor type 2 (Homo sapiens, UniProt P49146); experiment: Displacement of [3H]propionyl-pNPY from human Y2 receptor expressed in CHO cells measured after 2 hrs by microbeta liquid scintillation counting analysis; type: cell-based
T2 sequence (P49146 whole entry): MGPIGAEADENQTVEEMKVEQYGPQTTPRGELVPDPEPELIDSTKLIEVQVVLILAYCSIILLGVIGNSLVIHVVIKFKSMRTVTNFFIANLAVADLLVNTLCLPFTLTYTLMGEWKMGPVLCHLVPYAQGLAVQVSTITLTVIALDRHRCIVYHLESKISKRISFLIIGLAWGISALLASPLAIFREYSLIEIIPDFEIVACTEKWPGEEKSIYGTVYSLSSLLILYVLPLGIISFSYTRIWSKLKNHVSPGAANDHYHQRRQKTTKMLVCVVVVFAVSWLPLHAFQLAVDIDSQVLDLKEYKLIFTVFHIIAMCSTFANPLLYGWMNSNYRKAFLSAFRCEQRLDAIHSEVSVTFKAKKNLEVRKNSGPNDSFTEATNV

[7] = organism: Homo sapiens; experiment: Selectivity ratio of Ki for displacement of [3H]propionyl-pNPY from human Y5 receptor expressed in human HEC1B cells to Ki for displacement of [3H]UR-KK200 from human Y4 receptor expressed in CHO cells co-expressing Gqi5-mtAEQ; type: cell-based
[8] = molecular target: T3, Neuropeptide Y receptor type 5 (Homo sapiens, UniProt Q15761); experiment: Displacement of [3H]propionyl-pNPY from human Y5 receptor expressed in human HEC1B cells; type: cell-based
T3 sequence (Q15761 whole entry): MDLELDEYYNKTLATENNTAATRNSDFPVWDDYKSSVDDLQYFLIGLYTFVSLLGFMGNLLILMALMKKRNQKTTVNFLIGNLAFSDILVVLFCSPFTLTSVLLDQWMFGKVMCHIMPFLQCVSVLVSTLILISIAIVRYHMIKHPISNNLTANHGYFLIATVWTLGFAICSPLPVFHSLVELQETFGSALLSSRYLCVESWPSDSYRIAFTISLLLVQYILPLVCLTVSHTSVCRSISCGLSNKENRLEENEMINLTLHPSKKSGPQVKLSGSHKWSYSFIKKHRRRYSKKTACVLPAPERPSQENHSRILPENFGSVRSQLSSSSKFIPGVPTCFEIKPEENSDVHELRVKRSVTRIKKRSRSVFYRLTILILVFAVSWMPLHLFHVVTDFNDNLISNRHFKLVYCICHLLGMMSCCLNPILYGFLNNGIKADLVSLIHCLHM

[9] = organism: Homo sapiens; experiment: Selectivity ratio of Ki for displacement of [3H]propionyl-pNPY from human Y2 receptor expressed in CHO cells to Ki for displacement of [3H]UR-KK200 from human Y4 receptor expressed in CHO cells co-expressing Gqi5-mtAEQ; type: cell-based
[10] = molecular target: T4, Neuropeptide Y receptor type 1 (Homo sapiens, UniProt P25929); experiment: Displacement of [3H]UR-MK299 from Y1 receptor in human SK-N-MC cells; type: cell-based
T4 sequence (P25929 whole entry): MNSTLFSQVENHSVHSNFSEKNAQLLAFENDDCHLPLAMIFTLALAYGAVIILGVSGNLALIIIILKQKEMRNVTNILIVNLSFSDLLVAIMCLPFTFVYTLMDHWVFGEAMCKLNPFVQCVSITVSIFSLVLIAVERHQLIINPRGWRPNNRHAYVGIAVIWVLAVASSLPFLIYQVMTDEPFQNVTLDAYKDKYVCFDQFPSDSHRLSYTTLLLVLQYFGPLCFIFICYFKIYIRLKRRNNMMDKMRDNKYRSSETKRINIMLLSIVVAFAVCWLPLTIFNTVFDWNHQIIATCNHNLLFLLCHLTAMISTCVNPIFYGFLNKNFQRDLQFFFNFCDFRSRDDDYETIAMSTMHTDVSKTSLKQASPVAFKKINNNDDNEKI

T1 sequence (P50391 whole entry): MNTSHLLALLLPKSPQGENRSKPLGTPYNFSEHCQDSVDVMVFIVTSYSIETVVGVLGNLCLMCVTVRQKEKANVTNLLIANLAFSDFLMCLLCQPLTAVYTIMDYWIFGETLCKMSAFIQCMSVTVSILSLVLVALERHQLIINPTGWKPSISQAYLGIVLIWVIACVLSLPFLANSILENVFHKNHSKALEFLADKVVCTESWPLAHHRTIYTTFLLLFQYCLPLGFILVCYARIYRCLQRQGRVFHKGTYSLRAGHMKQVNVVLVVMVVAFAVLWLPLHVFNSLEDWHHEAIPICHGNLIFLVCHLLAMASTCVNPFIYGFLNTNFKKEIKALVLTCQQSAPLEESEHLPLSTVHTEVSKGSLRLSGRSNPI

Compound	EC50 ([1]; read-out: EC50) [nM]	EC50 ([1]; read-out: pEC50 (converted)) [nM]	Ki ([3]; read-out: Ki) [nM]	Ki ([3]; read-out: pKi (converted)) [nM]	EC50 ([4]; read-out: EC50) [nM]	EC50 ([4]; read-out: pEC50 (converted)) [nM]	EC50 ([5]; read-out: EC50) [nM]	EC50 ([5]; read-out: pEC50 (converted)) [nM]	Ki ([6]; read-out: Ki) [nM]	Ki ([8]; read-out: Ki) [nM]	Ki ([10]; read-out: Ki) [nM]	Ki ([6]; read-out: pKi (converted)) [nM]	Ki ([8]; read-out: pKi (converted)) [nM]	Ki ([10]; read-out: pKi (converted)) [nM]	Ki ([6]; cho, read-out: Ki) [nM]	Ki ([10]; sk-n-mc, read-out: Ki) [nM]	Ratio Ki [2]	Ratio Ki [7]	Ratio Ki [9]
CC(C)C[C@@H](NC(=O)[C@@H](N)CCCNC(=N)N)C(=O)N[C@@H](CCCNC(=N)N)C(=O)N[C@@H](Cc1ccc(O)cc1)C(N)=O	> 30000	> 31600	93	–	> 30000	> 31600	–	–	–	–	–	–	–	–	–	–	–	–	–
CC(=O)N[C@@H](CCCNC(=N)N)C(=O)N[C@@H](Cc1ccc(O)cc1)C(=O)N[C@@H](CCCNC(N)=O)C(=O)N[C@@H](CC(C)C)C(=O)N[C@@H](CCCNC(=N)N)C(=O)N[C@@H](Cc1ccc(O)cc1)C(N)=O	> 30000	> 31600	120	–	> 30000	> 31600	> 30000	> 31600	–	–	–	–	–	–	–	–	–	–	–
CC(C)C[C@H](NC(=O)[C@H](CCCNC(=N)N)NC(=O)[C@H](Cc1ccc(O)cc1)NC(=O)[C@@H](N)CCCNC(=N)N)C(=O)N[C@@H](CCCNC(N)=O)C(=O)N[C@@H](Cc1ccc(O)cc1)C(N)=O	930	–	63	56.2	1070	–	–	–	–	–	> 3000	–	–	> 3160	–	–	> 48	–	–
CC(C)C[C@H](NC(=O)[C@@H](N)CCCNC(=N)N)C(=O)N[C@@H](CCCNC(=N)N)C(=O)N[C@H](Cc1ccc(O)cc1)C(N)=O	> 30000	> 31600	1500	–	> 30000	> 31600	–	–	–	–	–	–	–	–	–	–	–	–	–
CC(C)C[C@H](NC(=O)[C@@H](N)CCCNC(=N)N)C(=O)N[C@H](CCCNC(=N)N)C(=O)N[C@@H](Cc1ccc(O)cc1)C(N)=O	> 30000	> 31600	1300	–	> 30000	> 31600	–	–	–	–	–	–	–	–	–	–	–	–	–
CC(C)C[C@H](NC(=O)[C@H](CCCNC(=N)N)NC(=O)[C@H](Cc1ccc(O)cc1)NC(=O)[C@@H](N)CCCNC(N)=O)C(=O)N[C@@H](CCCNC(=N)N)C(=O)N[C@@H](Cc1ccc(O)cc1)C(N)=O	150	–	4.8	4.47	100	–	–	–	> 3000	> 10000	> 3000	> 3160	> 10000	> 3160	–	–	> 630	> 2100	> 630
CC(C)C[C@H](NC(=O)[C@H](N)CCCNC(=N)N)C(=O)N[C@@H](CCCNC(=N)N)C(=O)N[C@@H](Cc1ccc(O)cc1)C(N)=O	4800	4680	7.4	–	2400	–	–	–	–	–	–	–	–	–	–	–	–	–	–
N=C(N)NCCC[C@H](NC(=O)[C@H](Cc1c[nH]c2ccccc12)NC(=O)[C@@H](N)CCCNC(=N)N)C(=O)N[C@@H](Cc1ccc(O)cc1)C(N)=O (H-RWRY-NH2)	> 30000	> 31600	350	–	> 30000	> 31600	> 30000	> 31600	–	–	–	–	–	–	–	–	–	–	–
Ac-RYRPRY-NH2	> 30000	> 31600	1800	–	> 30000	> 31600	> 30000	> 31600	–	–	–	–	–	–	–	–	–	–	–
H-RYRARY-NH2	> 30000	> 31600	240	229	> 30000	> 31600	> 30000	> 31600	–	–	–	–	–	–	–	–	–	–	–
H-RYRGRY-NH2	> 30000	> 31600	190	–	> 30000	> 31600	> 30000	> 31600	–	–	–	–	–	–	–	–	–	–	–

Stronger by Ki ([3]; read-out: Ki), values ahead:

EC50 ([1]; read-out: EC50) [nM]	EC50 ([1]; read-out: pEC50 (converted)) [nM]	Ki ([3]; read-out: Ki) [nM]	Ki ([3]; read-out: pKi (converted)) [nM]	EC50 ([4]; read-out: EC50) [nM]	EC50 ([4]; read-out: pEC50 (converted)) [nM]	EC50 ([5]; read-out: EC50) [nM]	EC50 ([5]; read-out: pEC50 (converted)) [nM]	Ki ([6]; read-out: Ki) [nM]	Ki ([8]; read-out: Ki) [nM]	Ki ([10]; read-out: Ki) [nM]	Ki ([6]; read-out: pKi (converted)) [nM]	Ki ([8]; read-out: pKi (converted)) [nM]	Ki ([10]; read-out: pKi (converted)) [nM]	Ki ([6]; cho, read-out: Ki) [nM]	Ki ([10]; sk-n-mc, read-out: Ki) [nM]	Compound	Ratio Ki [2]	Ratio Ki [7]	Ratio Ki [9]
120	112	3.4 to 3.6	3.72	170	162	190	182	> 3000	> 3000	> 3000	–	–	–	–	–	CC(=O)N[C@@H](CCCNC(=N)N)C(=O)N[C@@H](Cc1ccc(O)cc1)C(=O)N[C@@H](CCCNC(=N)N)C(=O)N[C@@H](CC(C)C)C(=O)N[C@@H](CCCNC(=N)N)C(=O)N[C@@H](Cc1ccc(O)cc1)C(N)=O	> 830	> 830	> 830
430	–	4	–	460	–	620	–	> 3000	> 10000	> 300	> 3160	> 10000	> 316	–	–	CC(C)C[C@H](NC(=O)[C@H](CCCNC(=N)N)NC(=O)[C@H](Cc1ccc(O)cc1)NC(=O)[C@H](CCCNC(=N)N)NC(=O)CCC(=O)O)C(=O)N[C@@H](CCCNC(=N)N)C(=O)N[C@@H](Cc1ccc(O)cc1)C(N)=O	> 75	> 2500	> 750
1200	–	3.9	–	2500	–	–	–	–	> 10000	> 3000	> 1000	> 10000	> 3160	> 1000	–	CN[C@@H](CCCNC(=N)N)C(=O)N[C@@H](CC(C)C)C(=O)N[C@@H](CCCNC(=N)N)C(=O)N[C@@H](Cc1ccc(O)cc1)C(N)=O	> 770	> 2600	> 260
35	–	1.4	–	67	–	120	–	–	> 1000	–	> 1000	> 1000	> 1000	> 1000	> 1000	CC(=O)N[C@@H](CCCNC(=N)N)C(=O)N[C@@H](Cc1c[nH]c2ccccc12)C(=O)N[C@@H](CCCNC(=N)N)C(=O)N[C@@H](CC(C)C)C(=O)N[C@@H](CCCNC(=N)N)C(=O)N[C@@H](Cc1ccc(O)cc1)C(N)=O	> 710	> 710	> 710
38	–	2	–	51	–	100	–	–	> 3000	> 3000	> 10000	> 3160	> 3160	> 10000	–	CC(C)C[C@H](NC(=O)[C@H](CCCNC(=N)N)NC(=O)[C@H](Cc1ccc(O)cc1)NC(=O)[C@@H](N)CCCNC(=N)N)C(=O)N[C@@H](CCCNC(=N)N)C(=O)N[C@@H](Cc1ccc(O)cc1)C(N)=O	> 1500	> 1500	> 5000
–	–	0.36	–	–	–	–	–	–	–	–	–	–	–	–	–	CC[C@H](C)[C@H](N)C(=O)N[C@H]1CCC(=O)NCC(C(=O)N[C@@H](Cc2ccc(O)cc2)C(=O)N[C@@H](CCCNC(=N)N)C(=O)N[C@@H](CC(C)C)C(=O)N[C@@H](CCCNC(=N)N)C(=O)N[C@@H](Cc2ccc(O)cc2)C(N)=O)NC(=O)[C@@H]2CCCN2C(=O)[C@@H](NC(=O)[C@@H](N)[C@@H](C)CC)CCC(=O)NCC(C(=O)N[C@@H](Cc2ccc(O)cc2)C(=O)N[C@@H](CCCNC(=N)N)C(=O)N[C@@H](CC(C)C)C(=O)N[C@@H](CCCNC(=N)N)C(=O)N[C@@H](Cc2ccc(O)cc2)C(N)=O)NC(=O)[C@@H]2CCCN2C1=O (stereo partly specified) (I: H-IEP[ξDap]YRLRY-NH2 / II: H-IEP[ξDap]YRLRY-NH2; amide I:2-II:4, I:4-II:2)	–	–	–
